This is an account of results in patent US10471041B2, “Use of geninstein” (DSM IP ASSETS B.V., priority 2007, dated 2019).

The test concerns rats treated with scopolamine. The test can be described thus: Zone Quick test (phenol red thread) of tear production in the scopolamine dry eye model. It counts as in vivo, rat. As to conditions: FIG. 1. As to the method: Another well-accepted model of dry eye is the scopolamine model which utilizes subcutaneous injections (5 mg in 10 ml) or dermal patch or gel dosage (Durson et al., Invest. Ophthalmol. Vis. Sci. 43: 632-8, 2002) of scopolamine to induce a dry eye condition in rats by parasympatholytic blockade of natural tear production.
These models and their variations were used to test the efficacy of genistein, delivered as a feed admixture (50 mg/kg low dose and 250 mg/kg high dose) to ameliorate the effects of dry eye. In addition, one test group served as a control group, receiving vehicle feed only with no added isoflavonoids.
Tear volume was assessed by using absorptive threads impregnated with Phenol Red (zone quick test). Outcome measures are according to criteria published in test instructions as well as comparison with control animal results.
Tear volume was monitored by the Zone Quick test. This in-life test is a standardized measure of tear production. It consists of a thread impregnated with phenol red which causes a colour change of the length of the thread that becomes wet from tears when the thread is applied to the lacrimal lake. The length (in mm) of the wetted thread is proportional to the tear volume produced.
0-CON, 0-SCOP: each 8 control animals (not on scopolamine or on scopolamine)
50-SCOP: 8 animals (on scopolamine) suppl. with 50 ppm genistein […]

Consider `O=c1c(-c2ccc(O)cc2)coc2cc(O)cc(O)c12` [genistein, 4′,5,7-trihydroxy-isoflavone], for which the “dose dependence of tear volume restoration” value (250 vs 50 genistein supplementation groups) is on record as “more pronounced in the group supplemented with 250 mg than in that with 50 mg”. Moreover, the “tear volume (Zone Quick test, length of wetted thread)” value (genistein as feed admixture, 50 or 250 ppm, supplementation 2.5 weeks (MIDTEST) and 5.0 weeks (FINALTEST), compared with control animals) is “restored their tear volume almost to control values”.
